This passage reports IC50 results from US8022206B2 (OSI Pharmaceuticals, LLC, priority 2008, dated 2011).

One assay addresses MET (human) (Homo sapiens, UniProt P08581). Briefly: MET (human) AlphaScreen kinase assay, Km of ATP. The note with it: AlphaScreen, Km of ATP; read-out: Met biochemical IC50. Type of assay: biochemical. Put shortly:
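Human MET at lot-optimised concentration in 50 mM Tris pH 7.4 buffer with 1 mM DTT, compound at 1% DMSO final; enzyme starts the reaction, 60 min at RT.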
In general terms: Bead proximity is the source of the signal in Alpha formats.

The target of a further assay is RON (human) (Homo sapiens, UniProt Q04912). The assay can be described thus: RON (human) AlphaScreen kinase assay, Km of ATP. It is filed as biochemical. Conditions: AlphaScreen, Km of ATP; read-out: RON biochemical IC50. In outline: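 Reaction was started with enzyme and run 30 min at RT. PT66 donor/acceptor beads in an EDTA-containing Tris pH 7.5 buffer were then added, and the signal was read after 1 h.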

Structures are written as SMILES.

One may read the IC50 as the midpoint of a concentration-inhibition curve.

RON (human), sequence (Q04912 25-1400): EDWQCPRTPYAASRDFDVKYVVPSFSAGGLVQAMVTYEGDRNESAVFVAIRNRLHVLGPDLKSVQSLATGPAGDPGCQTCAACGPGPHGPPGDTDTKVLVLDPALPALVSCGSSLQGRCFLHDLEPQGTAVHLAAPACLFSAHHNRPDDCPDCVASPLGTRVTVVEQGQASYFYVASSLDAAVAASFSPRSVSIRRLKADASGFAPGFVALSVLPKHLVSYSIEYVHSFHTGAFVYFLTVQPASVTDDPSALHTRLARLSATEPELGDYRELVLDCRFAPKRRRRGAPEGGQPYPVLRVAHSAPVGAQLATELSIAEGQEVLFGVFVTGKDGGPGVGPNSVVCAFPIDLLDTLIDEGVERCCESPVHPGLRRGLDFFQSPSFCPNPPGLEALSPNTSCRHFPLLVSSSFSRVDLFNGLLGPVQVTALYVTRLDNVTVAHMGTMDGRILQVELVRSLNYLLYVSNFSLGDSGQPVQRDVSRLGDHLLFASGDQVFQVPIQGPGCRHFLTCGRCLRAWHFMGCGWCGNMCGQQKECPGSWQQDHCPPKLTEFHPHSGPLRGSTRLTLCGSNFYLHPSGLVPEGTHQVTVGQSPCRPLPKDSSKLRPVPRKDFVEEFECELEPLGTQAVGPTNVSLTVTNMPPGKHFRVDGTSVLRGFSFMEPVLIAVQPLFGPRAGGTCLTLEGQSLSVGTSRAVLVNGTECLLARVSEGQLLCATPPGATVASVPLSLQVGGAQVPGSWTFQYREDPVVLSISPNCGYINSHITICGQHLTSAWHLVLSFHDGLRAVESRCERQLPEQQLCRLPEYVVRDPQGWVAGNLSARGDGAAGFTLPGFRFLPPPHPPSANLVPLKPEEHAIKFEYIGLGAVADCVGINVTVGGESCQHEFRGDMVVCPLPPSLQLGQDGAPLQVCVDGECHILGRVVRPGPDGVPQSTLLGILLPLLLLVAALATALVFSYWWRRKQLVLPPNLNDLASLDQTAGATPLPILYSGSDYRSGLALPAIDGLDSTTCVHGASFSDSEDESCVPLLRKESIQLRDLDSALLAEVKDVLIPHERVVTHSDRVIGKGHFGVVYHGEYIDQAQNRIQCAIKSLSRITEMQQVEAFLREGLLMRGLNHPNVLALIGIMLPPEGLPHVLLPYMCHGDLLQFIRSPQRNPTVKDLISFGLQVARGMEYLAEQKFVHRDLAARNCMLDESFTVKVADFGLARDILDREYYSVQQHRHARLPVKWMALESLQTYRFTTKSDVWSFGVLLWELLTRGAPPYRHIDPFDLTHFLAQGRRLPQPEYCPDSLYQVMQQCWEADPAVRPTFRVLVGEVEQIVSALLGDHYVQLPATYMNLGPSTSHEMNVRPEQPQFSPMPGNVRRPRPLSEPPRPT
MET (human), sequence (P08581 25-1390): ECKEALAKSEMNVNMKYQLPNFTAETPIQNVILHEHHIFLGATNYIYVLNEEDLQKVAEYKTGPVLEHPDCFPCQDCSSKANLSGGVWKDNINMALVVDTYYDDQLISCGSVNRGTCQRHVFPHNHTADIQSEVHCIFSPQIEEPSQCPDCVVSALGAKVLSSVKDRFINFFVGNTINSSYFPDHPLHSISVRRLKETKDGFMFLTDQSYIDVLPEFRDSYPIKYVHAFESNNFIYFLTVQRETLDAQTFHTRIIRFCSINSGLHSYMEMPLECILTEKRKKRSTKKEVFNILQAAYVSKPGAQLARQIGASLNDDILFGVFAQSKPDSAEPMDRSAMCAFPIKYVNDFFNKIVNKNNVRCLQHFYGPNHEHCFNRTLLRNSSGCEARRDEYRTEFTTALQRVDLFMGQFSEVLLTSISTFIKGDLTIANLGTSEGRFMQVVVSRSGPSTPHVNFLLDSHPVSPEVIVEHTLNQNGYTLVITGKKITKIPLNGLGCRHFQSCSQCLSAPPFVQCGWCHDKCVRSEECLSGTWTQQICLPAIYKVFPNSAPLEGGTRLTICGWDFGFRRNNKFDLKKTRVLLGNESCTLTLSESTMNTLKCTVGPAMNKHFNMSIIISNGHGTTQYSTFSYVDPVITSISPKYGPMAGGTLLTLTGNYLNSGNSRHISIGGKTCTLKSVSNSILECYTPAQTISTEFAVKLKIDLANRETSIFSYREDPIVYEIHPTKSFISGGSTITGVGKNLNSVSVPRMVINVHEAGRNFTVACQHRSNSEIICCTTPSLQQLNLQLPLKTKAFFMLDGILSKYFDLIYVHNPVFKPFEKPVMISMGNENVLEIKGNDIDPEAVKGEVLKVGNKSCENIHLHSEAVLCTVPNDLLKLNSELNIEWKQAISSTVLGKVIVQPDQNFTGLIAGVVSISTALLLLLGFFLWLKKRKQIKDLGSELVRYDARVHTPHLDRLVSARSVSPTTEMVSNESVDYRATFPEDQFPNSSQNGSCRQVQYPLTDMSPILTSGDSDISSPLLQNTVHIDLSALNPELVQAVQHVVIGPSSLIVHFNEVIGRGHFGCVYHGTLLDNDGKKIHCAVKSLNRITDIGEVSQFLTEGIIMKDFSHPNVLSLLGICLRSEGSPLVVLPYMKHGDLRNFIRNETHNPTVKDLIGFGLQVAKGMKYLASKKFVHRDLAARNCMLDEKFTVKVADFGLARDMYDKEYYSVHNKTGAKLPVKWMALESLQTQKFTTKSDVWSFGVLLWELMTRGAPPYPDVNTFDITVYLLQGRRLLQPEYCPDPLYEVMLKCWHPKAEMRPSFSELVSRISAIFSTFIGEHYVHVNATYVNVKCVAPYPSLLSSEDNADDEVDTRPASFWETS

Consider `C[C@@H](Oc1c(N)ncc2c(-c3ccnc4ccccc34)coc12)c1c(Cl)ccc(F)c1Cl` [Example 92, 7-[(R)-1-(2,6-Dichloro-3-fluorophenyl)ethoxy]-3-quinolin-4-ylfuro[3,2-c]pyridin-6-ylamine], for which the 50% inhibitory concentration (IC50) at MET (human) is 0.5 to 5 µM; on RON (human), 5 to 20 µM.
On the same counts, the results for `COc1ncc(-c2coc3c(O[C@H](C)c4c(Cl)ccc(F)c4Cl)c(N)ncc23)cn1` [Example 93, 7-[(R)-1-(2,6-Dichloro-3-fluorophenyl)ethoxy]-3-(2-methoxypyrimidin-5-yl)furo[3,2-c]pyridin-6-ylamine] are 0.5 to 5 µM and 5 to 20 µM.
As to `C[C@@H](Oc1c(N)ncc2c(-c3cccc(C(=O)N4CCN(C)CC4)c3)coc12)c1c(Cl)ccc(F)c1Cl` [Example 94, (3-{6-Amino-7-[(R)-1-(2,6-dichloro-3-fluorophenyl)ethoxy]furo[3,2-c]pyridin-3-yl}phenyl)(4-methylpiperazin-1-yl)methanone], the IC50 at MET (human) is less than 0.5 µM; at RON (human) it was 0.5 to 5 µM.
In the case of `Cc1ccc(-c2coc3c(O[C@H](C)c4c(Cl)ccc(F)c4Cl)c(N)ncc23)s1` [Example 95, 7-[(R)-1-(2,6-Dichloro-3-fluorophenyl)ethoxy]-3-(5-methylthiophen-2-yl)furo[3,2-c]pyridin-6-ylamine], the 50% inhibitory concentration (IC50) at MET (human) and on RON (human) was less than 0.5 µM each time.
Take `C[C@@H](Oc1c(N)ncc2c(-c3cccc(CN(C)C)c3)coc12)c1c(Cl)ccc(F)c1Cl` [Example 96, 7-[(R)-1-(2,6-Dichloro-3-fluorophenyl)ethoxy]-3-(3-dimethyl-aminomethylphenyl)furo[3,2-c]pyridin-6-ylamine]: the IC50 was less than 0.5 µM at MET (human) and 0.5 to 5 µM on RON (human).
Regarding `C[C@@H](Oc1c(N)ncc2c(-c3cccc(C(=O)NCCN4CCOCC4)c3)coc12)c1c(Cl)ccc(F)c1Cl` [Example 97, 3-{6-Amino-7-[(R)-1-(2,6-dichloro-3-fluorophenyl)ethoxy]-furo[3,2-c]pyridin-3-yl}-N-(2-morpholin-4-ylethyl)benzamide], the IC50 at MET (human) and at RON (human) was 0.5 to 5 µM throughout.
As to `C[C@@H](Oc1c(N)ncc2c(-c3cccc(C(=O)N4CCN(CCO)CC4)c3)coc12)c1c(Cl)ccc(F)c1Cl` [Example 98, (3-{6-Amino-7-[(R)-1-(2,6-dichloro-3-fluorophenyl)ethoxy]-furo[3,2-c]pyridin-3-yl}phenyl)-[4-(2-hydroxyethyl)piperazin-1-yl]methanone], the IC50 on MET (human) was less than 0.5 µM; on RON (human) it was 0.5 to 5 µM.
On the same counts, the results for `C[C@@H](Oc1c(N)ncc2c(-c3ccc(C(=O)N4CCN(CCO)CC4)cc3)coc12)c1c(Cl)ccc(F)c1Cl` [Example 99, (4-{6-Amino-7-[(R)-1-(2,6-dichloro-3-fluorophenyl)ethoxy]-furo[3,2-c]pyridin-3-yl}phenyl)-[4-(2-hydroxyethyl)piperazin-1-yl]methanone] are less than 0.5 µM and less than 0.5 µM.
The matching figures for `C[C@@H](Oc1c(N)ncc2c(-c3ccc(C(=O)NCCN4CCOCC4)cc3)coc12)c1c(Cl)ccc(F)c1Cl` [Example 100, 4-{6-Amino-7-[(R)-1-(2,6-dichloro-3-fluorophenyl)ethoxy]-furo[3,2-c]pyridin-3-yl}-N-(2-morpholin-4-ylethyl)benzamide]: 0.5 to 5 µM and 0.5 to 5 µM.
Consider `C[C@@H](Oc1c(N)ncc2c(-c3ccc(C(=O)NCCN4CCCC4)cc3)coc12)c1c(Cl)ccc(F)c1Cl` [Example 101, 4-{6-Amino-7-[(R)-1-(2,6-dichloro-3-fluorophenyl)ethoxy]-furo[3,2-c]pyridin-3-yl}-N-(2-pyrrolidin-1-ylethyl)benzamide], for which the IC50 was less than 0.5 µM on MET (human) and 0.5 to 5 µM on RON (human).
As for `C[C@@H](Oc1c(N)ncc2c(-c3cccc(C(=O)NCCN4CCCC4)c3)coc12)c1c(Cl)ccc(F)c1Cl` [Example 102, 3-{6-Amino-7-[(R)-1-(2,6-dichloro-3-fluorophenyl)ethoxy]-furo[3,2-c]pyridin-3-yl}-N-(2-pyrrolidin-1-ylethyl)benzamide], the IC50 was less than 0.5 µM at MET (human) and 0.5 to 5 µM on RON (human).
The matching figures for `C[C@@H](Oc1c(N)ncc2c(-c3ccc(C(=O)NCCN4CCCCC4)cc3)coc12)c1c(Cl)ccc(F)c1Cl` [Example 103, 4-{6-Amino-7-[(R)-1-(2,6-dichloro-3-fluorophenyl)ethoxy]furo[3,2-c]pyridin-3-yl}-N-(2-piperidin-1-ylethyl)benzamide]: less than 0.5 µM and 0.5 to 5 µM.
For the compound `C[C@@H](Oc1c(N)ncc2c(-c3ccc(NCCN4CCOCC4)nc3)coc12)c1c(Cl)ccc(F)c1Cl` [Example 104, 7-[(R)-1-(2,6-Dichloro-3-fluorophenyl)ethoxy]-3-[6-(2-morpholin-4-yl-ethylamino)pyridin-3-yl]furo[3,2-c]pyridin-6-ylamine], the IC50 is less than 0.5 µM at MET (human) and 0.5 to 5 µM at RON (human).
As for `C[C@@H](Oc1c(N)ncc2c(-c3ccc(CN(C)C)cc3)coc12)c1c(Cl)ccc(F)c1Cl` [Example 105, 7-[(R)-1-(2,6-Dichloro-3-fluorophenyl)ethoxy]-3-(4-dimethylaminomethylphenyl)-furo[3,2-c]pyridin-6-ylamine], the concentration for half-maximal inhibition (IC50) on MET (human) was less than 0.5 µM; on RON (human) it was 0.5 to 5 µM.
On the same counts, the results for `C[C@@H](Oc1c(N)ncc2c(-c3ccc(C(=O)N4CCNCC4)cc3)coc12)c1c(Cl)ccc(F)c1Cl` [Example 106, (4-{6-Amino-7-[(R)-1-(2,6-dichloro-3-fluorophenyl)ethoxy]furo[3,2-c]pyridin-3-yl}phenyl)piperazin-1-ylmethanone] are less than 0.5 µM and less than 0.5 µM.
Take `C[C@@H](Oc1c(N)ncc2c(-c3ccc(N4CCOCC4)nc3)coc12)c1c(Cl)ccc(F)c1Cl` [Example 107, 7-[(R)-1-(2,6-Dichloro-3-fluorophenyl)ethoxy]-3-(6-morpholin-4-ylpyridin-3-yl)-furo[3,2-c]pyridin-6-ylamine]: the half-inhibitory concentration (IC50) on MET (human) and at RON (human) was 0.5 to 5 µM in each case.
With `C[C@@H](Oc1c(N)ncc2c(-c3ccc(NC(N)=O)cc3)coc12)c1c(Cl)ccc(F)c1Cl` [Example 108, (4-{6-Amino-7-[(R)-1-(2,6-dichloro-3-fluorophenyl)ethoxy]furo[3,2-c]pyridin-3-yl}phenyl)urea], the 50% inhibitory concentration (IC50) at MET (human) and on RON (human) was 0.5 to 5 µM each time.
Turning to `C[C@@H](Oc1c(N)ncc2c(-c3ccc(C(=O)Nc4nccs4)cc3)coc12)c1c(Cl)ccc(F)c1Cl` [Example 109, 4-{6-Amino-7-[(R)-1-(2,6-dichloro-3-fluorophenyl)ethoxy]-furo[3,2-c]pyridin-3-yl}-N-thiazol-2-yl-benzamide], the IC50 at MET (human) and on RON (human) was 0.5 to 5 µM in each case.
Regarding `C[C@@H](Oc1c(N)ncc2c(-c3ccc(Cn4cccn4)cc3)coc12)c1c(Cl)ccc(F)c1Cl` [Example 110, 7-[(R)-1-(2,6-Dichloro-3-fluorophenyl)ethoxy]-3-(4-pyrazol-1-ylmethylphenyl)-furo[3,2-c]pyridin-6-ylamine], the IC50 on MET (human) and on RON (human) was 0.5 to 5 µM each time.
For the compound `Cc1cscc1-c1coc2c(O[C@H](C)c3c(Cl)ccc(F)c3Cl)c(N)ncc12` [Example 111, 7-[(R)-1-(2,6-Dichloro-3-fluorophenyl)ethoxy]-3-(4-methylthiophen-3-yl)furo[3,2-c]pyridin-6-ylamine], the IC50 on MET (human) and at RON (human) was 0.5 to 5 µM in each case.
Regarding `C[C@@H](Oc1c(N)ncc2c(-c3cncnc3)coc12)c1c(Cl)ccc(F)c1Cl` [Example 112, 7-[(R)-1-(2,6-Dichloro-3-fluorophenyl)ethoxy]-3-pyrimidin-5-ylfuro[3,2-c]pyridin-6-ylamine], the half-inhibitory concentration (IC50) on MET (human) and at RON (human) was 0.5 to 5 µM in each case.
In the case of `C[C@@H](Oc1c(N)ncc2c(-c3cnc(N)nc3)coc12)c1c(Cl)ccc(F)c1Cl` [Example 113, 3-(2-Amino-pyrimidin-5-yl)-7-[(R)-1-(2,6-dichloro-3-fluorophenyl)ethoxy]furo[3,2-c]pyridin-6-ylamine], the concentration for half-maximal inhibition (IC50) on MET (human) and at RON (human) was 0.5 to 5 µM each time.
For the compound `CC(=O)c1ccc(-c2coc3c(O[C@H](C)c4c(Cl)ccc(F)c4Cl)c(N)ncc23)s1` [Example 114, 1-(5-{6-Amino-7-[(R)-1-(2,6-dichloro-3-fluorophenyl)ethoxy]furo[3,2-c]pyridin-3-yl}thiophen-2-yl)ethanone], the IC50 on MET (human) and on RON (human) was 0.5 to 5 µM in each case.
`Cc1csc(-c2coc3c(O[C@H](C)c4c(Cl)ccc(F)c4Cl)c(N)ncc23)c1` [Example 115, 7-[(R)-1-(2,6-Dichloro-3-fluorophenyl)ethoxy]-3-(4-methylthiophen-2-yl)furo[3,2-c]pyridin-6-ylamine]: the half-inhibitory concentration (IC50) at MET (human) and at RON (human) was 0.5 to 5 µM each time.
`Cc1ccsc1-c1coc2c(O[C@H](C)c3c(Cl)ccc(F)c3Cl)c(N)ncc12` [Example 116, 7-[(R)-1-(2,6-Dichloro-3-fluorophenyl)ethoxy]-3-(3-methylthiophen-2-yl)furo[3,2-c]pyridin-6-ylamine]: the values for the IC50 on MET (human) and on RON (human) were 0.5 to 5 µM and 5 to 20 µM, respectively.
On the same counts, the results for `Cc1ccc(-c2coc3c(O[C@H](C)c4c(Cl)ccc(F)c4Cl)c(N)ncc23)o1` [Example 117] are 0.5 to 5 µM and 0.5 to 5 µM.
On the same counts, the results for `C[C@@H](Oc1c(N)ncc2c(-c3ccc(CO)nc3)coc12)c1c(Cl)ccc(F)c1Cl` [Example 118, (5-{6-Amino-7-[(R)-1-(2,6-dichloro-3-fluorophenyl)ethoxy]furo[3,2-c]pyridin-3-yl}pyridin-2-yl)methanol] are less than 0.5 µM and 0.5 to 5 µM.
The matching figures for `C[C@@H](Oc1c(N)ncc2c(-c3ccc([N+](=O)[O-])nc3)coc12)c1c(Cl)ccc(F)c1Cl` [Example 119, 7-[(R)-1-(2,6-Dichloro-3-fluorophenyl)ethoxy]-3-(6-nitropyridin-3-yl)furo[3,2-c]pyridin-6-ylamine]: 0.5 to 5 µM and 5 to 20 µM.
